Source: article PMC6445106, “Structural and biochemical evidence supporting poly ADP-ribosylation in the bacterium Deinococcus radiodurans” (Nature Communications, 2019)

Tests used:
DrPARG [1] = target: T1, DrPARG (Deinococcus radiodurans, UniProt Q9RZM4, T267K); assay: isothermal titration calorimetry; conditions: 25 °C, 20 mM Tris-HCl pH 7.0, 100 mM NaCl; independent binding model
T1 construct: gene DR_B0099, pET28a, E. coli BL21(DE3); N-terminal His-tag cut with thrombin, GSHM left at N terminus; monomer, Mr 32 kDa; residues 100-110 GGGFLGGAQAQ
T1 sequence (Q9RZM4 entry or part of it T267K): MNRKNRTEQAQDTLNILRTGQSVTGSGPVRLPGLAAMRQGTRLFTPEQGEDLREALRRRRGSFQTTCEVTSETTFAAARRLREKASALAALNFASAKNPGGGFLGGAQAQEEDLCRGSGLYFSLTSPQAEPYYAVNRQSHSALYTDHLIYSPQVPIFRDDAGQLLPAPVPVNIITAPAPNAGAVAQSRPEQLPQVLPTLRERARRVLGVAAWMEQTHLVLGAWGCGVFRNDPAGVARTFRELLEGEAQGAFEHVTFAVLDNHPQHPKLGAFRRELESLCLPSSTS
From the text: (§1) isothermal titration calorimetry on DrPARG

DrPARG [2] = target: T2, DrPARG (Deinococcus radiodurans, UniProt Q9RZM4); assay: isothermal titration calorimetry; conditions: 25 °C, 20 mM Tris-HCl pH 7.0, 100 mM NaCl; independent binding model; complex also as PDB 5ZDC, 5ZDD, 5ZDE
T2 construct: gene DR_B0099, pET28a, E. coli BL21(DE3); N-terminal His-tag cut with thrombin, GSHM left at N terminus; monomer, Mr 32 kDa; residues 100-110 GGGFLGGAQAQ
T2 sequence (Q9RZM4 1-285): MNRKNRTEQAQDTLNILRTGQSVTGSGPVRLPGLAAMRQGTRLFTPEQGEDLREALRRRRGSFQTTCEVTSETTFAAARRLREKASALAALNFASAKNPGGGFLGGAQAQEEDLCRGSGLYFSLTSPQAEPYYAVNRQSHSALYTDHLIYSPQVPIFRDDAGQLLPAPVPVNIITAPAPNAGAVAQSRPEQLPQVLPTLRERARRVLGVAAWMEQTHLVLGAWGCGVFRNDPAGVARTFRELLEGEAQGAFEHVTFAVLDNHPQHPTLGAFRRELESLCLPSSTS
From the text: as §1

DrPARG [3] = target: T3, DrPARG (Deinococcus radiodurans, UniProt Q9RZM4, E112A); assay: isothermal titration calorimetry; conditions: 25 °C, 20 mM Tris-HCl pH 7.0, 100 mM NaCl; independent binding model
T3 construct: gene DR_B0099, pET28a, E. coli BL21(DE3); N-terminal His-tag cut with thrombin, GSHM left at N terminus; monomer, Mr 32 kDa; residues 100-110 GGGFLGGAQAQ
T3 sequence (Q9RZM4 entry or part of it E112A): as the sequence (Q9RZM4 entry or part of it T267K) above, with E112A, K267T counted along it
From the text: as §1

DrPARG [4] = target: T4, DrPARG (Deinococcus radiodurans, UniProt Q9RZM4, T267R); assay: isothermal titration calorimetry; conditions: 25 °C, 20 mM Tris-HCl pH 7.0, 100 mM NaCl; independent binding model
T4 construct: gene DR_B0099, pET28a, E. coli BL21(DE3); N-terminal His-tag cut with thrombin, GSHM left at N terminus; monomer, Mr 32 kDa; residues 100-110 GGGFLGGAQAQ
T4 sequence (Q9RZM4 entry or part of it T267R): as the sequence (Q9RZM4 entry or part of it T267K) above, with K267R counted along it
From the text: as §1

DrPARG [5] = target: T2, DrPARG; assay: CD thermal denaturation at […] nm; assay type: binding; conditions: 10 µM protein, 30 µM ADP-ribose, 20 mM phosphate pH 7.5; printed as "increased Tm by 46.5 °C", read as Tm of complex

## Nc1ncnc2c1ncn2[C@@H]1O[C@H](COP(=O)(O)OP(=O)(O)OC[C@H]2OC(O)[C@H](O)[C@@H]2O)[C@@H](O)[C@H]1O (some centres unmarked) [ADP-ribose]
DrPARG [1]
  Kd: 1980 ± 20 nM
DrPARG [2]
  Kd: 1780 ± 50 nM
DrPARG [3]
  Kd: 2020 ± 70 nM
DrPARG [4]
  Kd: 3760 ± 470 nM
DrPARG [5]
  Tm with ligand (apo 45.2): 46.5 °C
